Measurements: patent EP0347027B1, “Phenylpyridone derivatives,processes for their preparation and pharmaceutical compositions containing them” (SMITH KLINE & FRENCH LABORATORIES LIMITED, priority 1988, dated 1989)

Tests used:
hindquarter blood flow = test: Vasodilatation in vivo (perfused hindquarters at constant pressure); conditions: Rattus norvegicus, iv; dose producing a 50% increase in hindquarter blood flow; bolus i.v.; anaesthetised male Wistar rats; read-out: EDHQ₅₀
Procedure: Male Wistar rats (300 g) were anaesthetised with a sodium 5-ethyl-5-(1-methylpropyl)-2-thiobarbiturate/sodium pentobarbitone mixture i.p. (62.5 and 22.5 mg/kg respectively). The trachea was cannulated and the rats breathed spontaneously air enriched with O₂ (5 ml/min). Blood pressure was recorded from a carotid artery and a jugular vein was cannulated for the administration of compounds. The temperature of the animal was maintained at 37°C by the use of an electric blanket. […] The perfusion circuit was primed with 5% bovine serum albumin dissolved in 0.9% sodium chloride solution, pH adjusted to 7.4. Initially the pump rate was set between 10 and 15 ml/min to match the hind quarter perfusion pressure to that of the systemic circulation. Once set, the pressure remained unaltered for the rest of the experiment. A change in the speed of the pump (equivalent to hindquarter blood flow) was used to assess the changes in hindquarter vascular resistance.
All compounds were administered as a bolus i.v. and from the dose response curves the dose required to produce a 50% increase in hindquarter blood flow (EDHQ₅₀) was determined in µmoles/kg.

[1] = system: bronchoconstrictor response; test: Anti-allergic activity (ovalbumen challenge in sensitised animals); type: in vivo, Duncan Hartley guinea-pigs; conditions: Cavia porcellus, iv, 0.5 h; dose of 11 µmol/kg i.v.; ovalbumen 1mg.kg⁻¹ i.v. challenge 30 minutes following drug administration; sensitised guinea-pigs; read-out: inhibition of the control bronchoconstrictor response
Procedure: Male Duncan Hartley guinea-pigs (250-300 g) were sensitised to ovalbumen by i.p. injection of 2 ml of 50mg.ml⁻¹ i.p. and 0.2 ml s.c. Three weeks later they were anaesthetised with 60mg.kg⁻¹ sodium pentabarbitone. The trachea was cannulated and the animal respired at a rate of 40 breaths per minute and at an initial tracheal inflation pressure of 16 mmHg. Tracheal inflation pressure was measured by a transducer connected to a side arm of the respiration circuit. The carotid artery was cannulated for the measurement of blood pressure and the signal was used to trigger an instantaneous rate meter. A jugular vein was cannulated for the administration of drug and allergen. After surgery the animals were allowed to stabilise and the drug was administered i.v. as a bolus. Following this, ovalbumen 1mg.kg⁻¹ was injected i.v. as the antigen challenge either 2, 15 or 30 minutes following drug treatment and the peak bronchoconstrictor response recorded. For the control group ovalbumen only was given. One ovalbumen challenge per guinea-pig was used and n = 6 for each time point. The percentage increase in tracheal inflation pressure was calculated.

Compound: CCCOc1ccccc1-c1ccc(C#N)c(=O)[nH]1 [Example 1, 3-Cyano-6-(2-propoxyphenyl)-2(1H)-pyridinone]
- ED50 (hindquarter blood flow): 11.5 µmol/kg

Compound: CCCOc1ccccc1-c1ccc(C(N)=O)c(=O)[nH]1 [Example 2, 6-(2-Propoxyphenyl)-1,2-dihydro-2-oxopyridine-3-carboxamide]
- ED50 (hindquarter blood flow): 14 µmol/kg
- inhibition at 11 µmol/kg [1]: 44%
